In patent US9499510B2, “Pro-drug compounds” (Proximagen Limited, priority 2012, dated 2016):
pIC50: −log10 of the molar value. Structures can show the parent of a compound that is named as a salt. One block for each compound: values may come before it.

Experiments:
[1] = Solubility in aqueous solution (pH 2 to 10); type: physicochemical
Text: In an embodiment, prodrugs of the present invention are suitable for oral administration. The skilled person understands that the pH of the gastrointestinal tract changes along its length. For example, the stomach has a pH of around pH 1.5 and the GI tract after the stomach has a pH of around 5 to 7.5. For more detail see, for example, Measurement of gastrointestinal pH profiles in normal ambulant human subjects, Gut. 1988 August; 29(8): 1035-1041. Improved solubility is expected to result in improved absorption, and therefore improved oral bioavailability. Thus improved solubility at any pH value between around pH 1.5 to 8 is expected to improve oral bioavailability. Compounds of the invention were assessed for solubility in aqueous solutions having a pH of from 2 to 10. In an embodiment prodrugs of the invention have a solubility of >0.5 mg/mL in an aqueous solution having a pH of from 2 to 10, including from 2 to 8. In an embodiment prodrugs have a solubility of >5.0 mg/mL, or >10.0 mg/mL, >100.0 mg/mL, or >200.0 mg/mL in an aqueous solution having a pH of from 2 to 10, including from 2 to 8. In an embodiment the prodrugs have the aforementioned aqueous solubility at a pH within the range of from 4 to 8, or from 6 to 8.
In an embodiment, prodrugs of the invention are administered intravenously. High prodrug solubility is advantageous in order to reduce the volume of solution administered to the patient, and to reduce the risk of damage to the circulatory system. Solubility in an aqueous solution having a pH of from 2 to 10 of >10 mg/mL is preferred. Yet more preferred is solubility in an aqueous solution having a pH of from 2 to 10 of >30 mg/mL or >100.0 mg/mL. Yet more preferred is solubility in an aqueous solution having a pH of from 2 to 10 of >200.0 mg/mL. The solubility is measured in an aqueous solution having a pH of from 2 to 10, which pH range is advantageous for intravenous prodrug delivery. See, for example, A guide on intravenous drug compatibilities based on their pH, Nasser S C et al./Pharmacie Globale (IJCP) 2010, 5 (01)). In an embodiment the prodrugs of the claimed invention have solubility of >10 mg/mL in an aqueous solution having a pH of from 2 to 10. In an embodiment the prodrugs have the aforementioned aqueous solubility at a pH within the range of from 2 to 8, or from 4 to 8, or from 6 to 8. The solubility of the Examples is illustrated in Table 1.

[2] = target: T1, human ether a go-go related gene (hERG) K+ channel (Homo sapiens, UniProt Q12809); assay: hERG assay, IonWorks patch clamp electrophysiology; type: cell-based; conditions: Chinese Hamster Lung cell line stably expressing hERG; maximum assay concentration 33 uM
T1 construct: Chinese Hamster Lung cell line stably expressing the full length hERG channel; expressed in transfected cells; host or cells: Chinese Hamster Lung cell line
T1 sequence (Q12809 whole entry): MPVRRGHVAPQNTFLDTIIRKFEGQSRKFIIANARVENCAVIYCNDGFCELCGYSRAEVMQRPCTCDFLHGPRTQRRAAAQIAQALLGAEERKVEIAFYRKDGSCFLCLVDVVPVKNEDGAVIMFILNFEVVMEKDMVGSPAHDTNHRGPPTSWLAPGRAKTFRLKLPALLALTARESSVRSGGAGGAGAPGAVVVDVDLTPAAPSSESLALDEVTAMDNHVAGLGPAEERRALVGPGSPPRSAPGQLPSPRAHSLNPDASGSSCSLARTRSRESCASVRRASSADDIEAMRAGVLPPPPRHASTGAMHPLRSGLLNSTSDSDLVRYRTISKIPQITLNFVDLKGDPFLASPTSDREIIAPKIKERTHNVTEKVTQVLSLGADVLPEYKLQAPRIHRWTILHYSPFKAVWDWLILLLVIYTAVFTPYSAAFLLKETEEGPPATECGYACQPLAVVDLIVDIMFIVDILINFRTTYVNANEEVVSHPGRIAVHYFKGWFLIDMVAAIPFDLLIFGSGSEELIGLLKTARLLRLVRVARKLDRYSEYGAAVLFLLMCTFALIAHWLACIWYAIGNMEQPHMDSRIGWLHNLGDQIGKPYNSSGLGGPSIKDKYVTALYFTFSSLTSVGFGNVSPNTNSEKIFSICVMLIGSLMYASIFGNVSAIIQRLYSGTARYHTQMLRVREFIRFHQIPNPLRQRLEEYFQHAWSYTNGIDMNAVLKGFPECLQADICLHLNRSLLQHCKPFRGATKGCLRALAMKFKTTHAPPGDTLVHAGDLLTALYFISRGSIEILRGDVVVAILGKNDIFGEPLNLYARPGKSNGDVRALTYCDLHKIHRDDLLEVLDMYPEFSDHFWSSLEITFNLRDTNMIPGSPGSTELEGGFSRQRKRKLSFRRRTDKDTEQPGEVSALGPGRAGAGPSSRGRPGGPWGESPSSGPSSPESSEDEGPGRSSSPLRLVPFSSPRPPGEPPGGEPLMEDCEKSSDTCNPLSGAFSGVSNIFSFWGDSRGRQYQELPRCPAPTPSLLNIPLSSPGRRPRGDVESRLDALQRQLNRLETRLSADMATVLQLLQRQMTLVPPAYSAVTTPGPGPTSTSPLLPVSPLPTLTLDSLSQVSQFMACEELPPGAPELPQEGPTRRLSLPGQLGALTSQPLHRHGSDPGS
Protocol: Compounds of the invention were tested for inhibition of the human ether a go-go related gene (hERG) K^+ channel using IonWorks patch clamp electrophysiology. 8 Point concentration-response curves were generated on two occasions using 3-fold serial dilutions from the maximum assay concentration (33 uM). Electrophysiological recordings were made from a Chinese Hamster Lung cell line stably expressing the full length hERG channel. Single cell ion currents were measured in the perforated patch clamp configuration (100 ug/mL amphoterocin) at room temperature using an IonWorks Quattro instrument. The internal solution contained 140 mM KCl, 1 mM MgCl2, 1 mM EGTA and 20 mM HEPES and was buffered to pH 7.3. The external solution contained 138 mM NaCl, 2.7 mM KCl, 0.9 mM CaCl2, 0.5 mM MgCl2, 8 mM Na2HPO4 and 1.5 mM KH2PO4, and was buffered to pH 7.3. Cells were clamped at a holding potential of […] for 30 s and then stepped to +40 mV for 1 s. This was followed by a hyperpolarising step of 1 s to […] to evoke the hERG tail current. This sequence was repeated 5 times at a frequency of 0.25 Hz. Currents were measured from the tail step at the 5th pulse, and referenced to the holding current. Compounds were incubated for 6-7 min prior to a second measurement of the hERG signal using an identical pulse train. A minimum of 17 cells were required for each pIC50 curve fit. […]

solubility ([1]; aqueous buffer, pH 4.0): > 20000 µg/mL
Compound: CC(=O)c1ccc2c(c1)[C@H](NC(=O)c1ccc(F)c(Cl)c1)[C@H](OC(=O)CN)C(C)(C)O2 [Example 6, (3S,4S)-6-Acetyl-4-[(3-chloro-4-fluorobenzene)amido]-2,2-di methyl-3,4-dihydro-2H-1-benzopyran-3-yl 2-aminoacetate hydrochloride]

solubility ([1]; pH 4.4, aqueous buffer): > 20000 µg/mL
Compound: CNCC(=O)O[C@H]1[C@@H](NC(=O)c2ccc(F)c(Cl)c2)c2cc(C(C)=O)ccc2OC1(C)C [Example 7, (3S,4S)-6-acetyl-4-[(3-chloro-4-fluorobenzene)amido]-2,2-di methyl-3,4-dihydro-2H-1-benzopyran-3-yl 2-(methylamino)acetate hydrochloride]

solubility ([1]; pH 5.7, aqueous buffer): > 200000 µg/mL
Compound: CC(=O)c1ccc2c(c1)[C@H](NC(=O)c1ccc(F)c(Cl)c1)[C@H](OCOP(=O)(O)O)C(C)(C)O2 [Example 8, ({[(3S,4S)-6-Acetyl-4-[(3-chloro-4-fluorobenzene)amido]-2,2-dimethyl-3,4-dihydro-2H-1-benzopyran-3-yl]oxy}methoxy)phosphonic acid diamine]

solubility ([1]; pH 2.7, aqueous buffer): > 5000 µg/mL
Compound: CC(=O)c1ccc2c(c1)[C@H](NC(=O)c1ccc(F)c(Cl)c1)[C@H](OC(=O)[C@@H](N)CC(C)C)C(C)(C)O2.Cl [Example 9, (3S,4S)-6-Acetyl-4-[(3-chloro-4-fluorobenzene)amido]-2,2-di methyl-3,4-dihydro-2H-1-benzopyran-3-yl(2S)-2-amino-4-methylpentanoate hydrochloride]

solubility ([1]; pH 4.4, aqueous buffer): > 10000 µg/mL
Compound: CCCNCC(=O)O[C@H]1[C@@H](NC(=O)c2ccc(F)c(Cl)c2)c2cc(C(C)=O)ccc2OC1(C)C.Cl [Example 10, (3S,4S)-6-Acetyl-4-[(3-chloro-4-fluorobenzene)amido]-2,2-di methyl-3,4-dihydro-2H-1-benzopyran-3-yl 2-(propylamino)acetate hydrochloride]

solubility ([1]; pH 4.2, aqueous buffer): > 10000 µg/mL
Compound: CC(=O)c1ccc2c(c1)[C@H](NC(=O)c1ccc(F)c(Cl)c1)[C@H](OC(=O)CNC(C)C)C(C)(C)O2.Cl [Example 11, (3S,4S)-6-Acetyl-4-[(3-chloro-4-fluorobenzene)amido]-2,2-di methyl-3,4-dihydro-2H-1-benzopyran-3-yl 2-[(propan-2-yl)amino]acetate hydrochloride]

More lines, now with the values behind:

Compound: CC(=O)c1ccc2c(c1)[C@H](NC(=O)c1ccc(F)c(Cl)c1)[C@H](OP(=O)(O)O)C(C)(C)O2 [Example 1, {[(3S,4S)-6-Acetyl-4-[(3-chloro-4-fluorobenzene)amido]-2,2-dimethyl-3,4-dihydro-2H-1-benzopyran-3-yl]oxy}phosphonic acid]
solubility ([1]; pH 5.7, aqueous buffer): > 50000 µg/mL
pIC50 [2]: < 4.96

Compound: CC(=O)c1ccc2c(c1)[C@H](NC(=O)c1ccc(F)c(Cl)c1)[C@H](OC(=O)CN(C)C)C(C)(C)O2 [Example 2, (3S,4S)-6-Acetyl-4-[(3-chloro-4-fluorobenzene)amido]-2,2-dimethyl-3,4-dihydro-2H-1-benzopyran-3-yl 2-(dimethylamino)acetate hydrochloride]
solubility ([1]; pH 3.6, aqueous buffer): > 20000 µg/mL

Compound: CC(=O)O[C@H]1[C@@H](NC(=O)c2ccc(F)c(Cl)c2)c2cc(C(C)=O)ccc2OC1(C)C [Example 3, (3S,4S)-6-Acetyl-4-[(3-chloro-4-fluorobenzene)amido]-2,2-dimethyl-3,4-dihydro-2H-1-benzopyran-3-yl acetate]
solubility ([1]; pH 3.5, aqueous buffer): < 250 µg/mL

Compound: CC(=O)OCO[C@H]1[C@@H](NC(=O)c2ccc(F)c(Cl)c2)c2cc(C(C)=O)ccc2OC1(C)C [Example 4, {[(3S,4S)-6-Acetyl-4-[(3-chloro-4-fluorobenzene)amido]-2,2-dimethyl-3,4-dihydro-2H-1-benzopyran-3-yl]oxy}methyl acetate]
solubility ([1]; pH 3.5, aqueous buffer): < 250 µg/mL

Compound: CC(=O)c1ccc2c(c1)[C@H](NC(=O)c1ccc(F)c(Cl)c1)[C@H](OCOC(=O)CN(C)C)C(C)(C)O2 [Example 5, {[(3S,4S)-6-Acetyl-4-[(3-chloro-4-fluorobenzene)amido]-2,2-dimethyl-3,4-dihydro-2H-1-benzopyran-3-yl]oxy}methyl 2-(dimethylamino)acetate]
solubility ([1]; aqueous buffer, pH 3.0): > 2000 µg/mL
